# Experiments:
# [1] = Photobleaching under laser irradiation, measured with a fluorescence spectrometer; assay type: physicochemical; conditions: total dose 10 J cm^−2, nearly same initial fluorescence intensity
# Description: Photobleaching characteristics of free Ce6 and nanophotomedicine (NPM-3) having nearly the same initial florescence intensity (that correlate with concentration of the drug) is compared using a fluorescence spectrometer. Laser irradiation of samples of both products was carried out under identical condition of a total dose of 10 J cm^−2. FIG. 4 illustrates the changes in the fluorescence emission characteristics of both the samples. […] In effect, this leads to long term stability of the drug within the construct even after extended duration of therapy.
# Leukemia cells K562 = assay: Intracellular photobleaching by confocal imaging under 405 nm laser; assay type: cell-based, human; conditions: 1 μM sensitizer, 3 hrs incubation, 1-360 seconds
# Description: Leukemia cells K562 were seeded at 800.000 cells/well in a 12 well tissue culture plate and treated with both free Ce6 (1 μM) and nanophotomedicine (NPM-3) prepared by using the same concentration of the sensitizer. Cells were incubated at 37° C. for 3 hrs before imaging using confocal microscope. Fluorescence imaging was carried out by exciting the sensitizer or nanophotomedicine taken-up by the cells using 405 nm laser. For recording the photobleaching at intracellular regions of the cancer cells, which has significant correlation to therapeutic effects, imaging is carried out after stipulated duration of laser irradiation from 1-360 seconds).
substance,measurement,setting,value
chlorin e6 [free Ce6],photodose at which the drug is inactivated by photobleaching,[1],2.5 J cm^−2
same,duration of laser irradiation until intracellular fluorescence is bleached out,Leukemia cells K562,30 s

# — patent US20220296714A1, “TARGETED NANO-PHOTOMEDICINES FOR PHOTODYNAMIC THERAPY OF CANCER” (ERASMUS UNIVERSITY MEDICAL CENTER ROTTERDAM, priority 2009, published 2022)
